Tested on: human mescenchymal stem cell (hMSCs)
Conditions: MTT
Protocol: The MTT colorimetric cell viability provides a straightforward and quantifiable method for determining cell viability in a wide variety of cell types. An MTT assay was used to determine the cytotoxicity of Mg, Sr, Cu, and/or Zn ions in human mescenchymal stem cells. In a typical assay 2.8×10^4 cells/cm^2 human mescenchymal stem cell (hMSCs) were cultured in a low glucose DMEM culture medium supplemented with 10% (v/v) fetal bovine serum (FBS, Biowest, France), antibiotics (100 U/ml of penicillin and 100 μg/ml of streptomycin), and 2 mM L-glutamine using 96-well tissue culture plates. After one day of cell culture, testing solutions with a range of concentrations (Table 1) of different potential ions were added to the wells. The MTT solution was prepared by adding thiazolyl blue tetrazolium bromide powder to the phosphate buffered saline (PBS, OXOID Limited, England) and 10 μL of 5 mg/mL MTT solution was added on the next day. 100 μL of 10% sodium dodecyl sulfate (SDS, Sigma, USA) in 0.01 M hydrochloric acid was added to each well after four hours of culturing and incubated at 37° C. in an atmosphere of 5% CO2 and 95% air overnight. Finally, the absorbance was recorded by a multimode detector at a wavelength of 570 nm with a reference wavelength of 640 nm. Cell viability was quantified from the absorbance readings.

For `O=S(=O)([O-])[O-].[Cu+2]` [Cu ions, CuSO4], the “ion concentration with loss of viability” value (ion tested independently) was no less than 25 ppm.

In the case of `[Cl-].[Cl-].[Mg+2]` [Mg ion, MgCl2], the “ion concentration above which most of the cells became non-viable” value (ion tested independently) was “exceeded 1000 ppm” and the “ion concentration above which viability began to decrease” value (ion tested independently) was “exceeded 400 ppm”.

With `[Cl-].[Cl-].[Sr+2]` [Sr ion, SrCl2] the “cell viability relative to control cells” value (ion concentrations of 100 to 400 ppm) was 115% and the cell viability (treatment with up to 1,000 ppm) was roughly 100%.

With `[Cl-].[Cl-].[Zn+2]` [Zn ions, ZnCl2] the “ion concentration above which significant cell death was found” value (ion tested independently) was “exceeded 1 ppm”.

Source: US20200397818A1, “Multi-Mineral Supplement for Improved Bone Density” (priority 2017, published 2020)
